melting point | SMILES
200 °C | S=c1[nH]cnn1C1CCc2ccccc2C1 (stereo not drawn)
99 to 101 °C | CS(=O)(=O)Nc1cc(C(O)CNCCCCCCOCCC2CCCCC2)ccc1O (stereo not drawn)
50 to 52 °C | CCOC(=O)c1cnc(Cl)c(N)c1NC
101 to 103 °C | CC(C)C[C@@H](OC(=O)c1cccnc1)C(=O)O
157 to 160 °C | CCOC(=O)C(=O)Nc1c([N+](=O)[O-])sc2ccc(Br)cc12
198 °C | CC(N1C(=O)C(=O)N(c2ccc(C#N)cc2)C1=S)C(C)(C)C (stereo not drawn)
111 to 112 °C | C1=CC2OC1c1cc3c(cc12)OCO3
193 to 195 °C | CCc1nc2c(N)nc3ccccc3c2n1CCCCS(=O)(=O)N(C)C
101 to 103 °C | CCN(CC)CCNC(=O)c1cc(Cl)c(N)cc1OCCCCSC
185 to 193 °C | CCOC(=O)c1[nH]c2ccc(C(O)(C(F)(F)F)C(F)(F)F)cc2c1-c1ccccc1
233 to 234 °C | O=C(O)c1cnc(-c2ccc(Cl)cc2)s1
145 to 149 °C | CS(=O)(=O)Oc1cc(OS(C)(=O)=O)cc(OS(C)(=O)=O)c1
318 to 332 °C | CN(C)S(=O)(=O)c1cc2[nH]c(=O)c(=O)[nH]c2cc1[N+](=O)[O-]
77 °C | N#CCc1ccc(N)c(Cl)c1
94 to 95 °C | O=C1c2ccccc2C(=O)N1CCCCN1CCN(c2csc3cc(F)ccc23)CC1
150 to 158 °C | CCOC(=O)C(=O)Nc1ccc(Oc2ccc(NC(=O)C(=O)OCC)cc2)cc1
83 to 84 °C | CCCCCCC(CO)c1nc([N+](=O)[O-])c[nH]1 (stereo not drawn)
189 to 190 °C | CON=C(Nc1nc(OC)nc(OC)n1)NS(=O)(=O)c1ccccc1-c1ccccc1
136 to 141 °C | CCCC(=O)SCC(Cc1ccccc1)C(=O)Nc1cccc(C(=O)O)c1C (stereo not drawn)
147 to 149 °C | CC(=O)c1ccc(NC(=O)C(F)(F)F)nc1
174 to 176 °C | O=C(NO)c1ccc(CNC(=O)c2[nH]c(-c3ccccc3)cc2-c2ccc(Br)cc2)cc1
36 to 37 °C | CCCCCC(C)(C)NC(=O)CCl
232 to 233 °C | Cn1ccc(-c2ccc(C(=O)O)c(Cl)c2)n1
57 °C | CCCCCCCCCCCCCCCCCCCCCCOC(=O)C(C)O (stereo not drawn)
62 to 64 °C | CC(C)(S)CNC(=O)/C(CCO)=C(\c1ccc(Cl)cc1)c1ccc(S(C)(=O)=O)cc1

melting point | SMILES
102 to 104 °C | O=C(OCCN1CCCC1)c1ccccc1Nc1ccnc2cc(Cl)ccc12
71 to 72 °C | OC/C=C/C=C(c1ccccc1)c1ccccc1
80 to 82 °C | CC(=O)c1ccc2c(c1)CCC(=O)CO2
67 to 69 °C | O=C(Nc1ccccc1)OCC1(COC(=O)Nc2ccccc2)CSc2ccccc2C1=O
209 to 210 °C | O=C(O)[C@@H]1C[C@H](SCc2ccc(C3CCCCC3)cc2)CN1
192 to 194 °C | CCCN1NC(c2ccc(Cl)cc2)C2=C1C(=Cc1ccc(Cl)cc1)CSC2 (stereo not drawn)
88 to 90 °C | CCC(=O)n1c(=O)oc2ccccc21
83 to 85 °C | CN(C)CCOc1cc(C(=O)N2CCC(N(C)CCc3ccccc3)CC2)ccc1-n1cncn1
323 to 327 °C | O=c1[nH]c2cc(F)c(Br)c([N+](=O)[O-])c2[nH]c1=O
127 to 128 °C | Cc1nc2ccc(NS(=O)(=O)c3cccc(Cl)c3C)cc2o1
188 to 189 °C | COc1cc(OCc2ccccn2)c(C=CC(=O)c2ccc(S(N)(=O)=O)cc2)cc1-c1cccs1
115 to 118 °C | CC(C)(C)OC(=O)N[C@H]1CC[C@H](CCN2CCN(c3cccc4c3CCC4)CC2)CC1
91 to 92 °C | CCOC(=O)C=Cc1ccc(CCNS(=O)(=O)CCc2ccc(Cl)cc2)cc1
240 to 244 °C | NC(=O)c1cccc(NS(=O)(=O)c2ccc([N+](=O)[O-])cc2)c1
110 °C | c1ccc(C(OC2CCN(CCCn3cnc4ccccc43)CC2)c2ccccc2)cc1
211 to 212 °C | Cc1ccccc1-n1c(C=Cc2ccccc2F)nc2cnccc2c1=O
73 to 75 °C | CCn1nc(C(F)(F)F)c(CS(=O)(=O)C2=NOC(C)(CCl)C2)c1F (stereo not drawn)
168 to 170 °C | O=C1CCC(N2Cc3c(OCc4ccc(CN5CCN(C(=O)CCCCC6SCC7NC(=O)NC76)CC5)cc4)cccc3C2=O)C(=O)N1 (stereo not drawn)
70 to 72 °C | CCOC(=O)C(C)Oc1ncn(-c2cccc(Cl)c2)n1 (stereo not drawn)
81 °C | CC(F)C(C)(N)C(N)=O (stereo not drawn)
90 to 92 °C | COC(C)COC1C(n2cc(C)c(=O)[nH]c2=O)OC(COCc2ccccc2)(COS(=O)(=O)c2ccc(C)cc2)C1(CCO)OCc1ccccc1 (stereo not drawn)
38 to 39 °C | CN(C)CCSc1nc2ccccc2n1CCc1ccccc1
> 300 °C | Oc1ncnc2[nH]c(-c3ccccc3)cc12
144 to 147 °C | O=C1CCC(=O)C(c2cccc(Cl)c2)N1 (stereo not drawn)
148 to 149 °C | C(=C\c1nc(COc2ccc(CCCCn3cnc4ccccc43)cc2)co1)/c1ccccc1

Second part, the compound before the results:

SMILES | melting point
CS(=O)(=O)Oc1ccc2c(c1)C(=O)C(CC=O)C2 (racemic) | 85 to 87 °C
Cc1ccnc2c1nc(COc1ccc(CC3SC(=O)NC3=O)cc1)n2C (stereo not drawn) | 205 to 207 °C
O=C1CCCN1C(=O)Oc1ccc(Br)cc1 | 107 to 108 °C
CCOC(=O)C(=CNc1ccc(CO)cc1I)C(=O)OCC | 152 to 154 °C
O=c1c2c(F)cccc2nc(C(S)c2ncnc3[nH]cnc23)n1-c1ccccc1Cl (stereo not drawn) | 223 to 224 °C
CC(=O)NCC1CN(c2ccc(N3CCC(C4NN=C(N)S4)CC3)c(F)c2)C(=O)O1 (stereo not drawn) | 168 to 169 °C
CN(C)CC(O)c1cc(-c2ccccc2)on1 (stereo not drawn) | 117 to 119 °C
O=C(COc1ccon1)NCCO[N+](=O)[O-] | 67 to 69 °C
C[C@H](C#Cc1ccc(Cc2ccccc2)s1)N(O)C(N)=O | 140 to 142 °C
CN(C)Cc1cccc(-c2cc3c4c(ccn4C(=O)CNC3)c2)c1 | 98 to 100 °C
COCOc1cc(OC)ccc1Br | 40 to 42 °C
O=C(NNS(=O)(=O)c1ccccc1)c1ccccc1CCc1ccccc1 | 158 to 159 °C
CC(C)(C)OC(=O)N1CCN(c2cc(N)nc(N)n2)CC1 | 176 to 179 °C
CNC(=O)C(Cc1ccc(OC)cc1)NC(=O)Nc1n[nH]c(=S)s1 (stereo not drawn) | 232 to 233 °C
CNCc1ccc(-c2cc3c4c(ccn4C(=O)CNC3)c2)cc1 | 178 to 180 °C
CC(=O)c1c(-c2ccccc2)nn(CC2CC2)c(=O)c1Nc1cccc2ncccc12 | 204 to 205 °C
CC(C)CC(N)S(=O)(=O)O (stereo not drawn) | 142 to 144 °C
CC(=Cc1ccc(O)c(Cl)c1)[N+](=O)[O-] | 91 to 93 °C
CC(=O)CCCNC(=O)c1c2ccc(Cl)cc2c(-c2ccccc2)n1C | 128 to 131 °C
CCOC(=O)c1cc2c(OC)ccnc2[nH]1 | 195 to 197 °C
O=C(O)CCC(=O)Oc1ccc(N(CCCl)CCCl)cc1 | 98 to 100 °C
CN1CCN(c2ccc(-c3[nH]nc4c3C(=O)c3c(NC(=O)NNC(=O)c5cccnc5)cccc3-4)cc2)CC1 | 238 °C
CCCCOc1ccc(C(=O)Nc2ccc3cc(CN4CCCC4)cnc3c2C)cc1 | 161 °C
CNC(=O)c1cccc(NC(=O)Cc2ccc(Br)cc2)c1 | 165 to 166 °C
Oc1cccc(C(O)CCCCCOc2cccc(Cl)c2)c1 (stereo not drawn) | 125 to 127 °C
COc1cccc(S(=O)(=O)c2ccc3c(c2)c(CCNC(=O)OC(C)(C)C)c(C)n3C)c1 | 115 to 122 °C
CCCCCCCC[C@H](N[C@@H](C)C(=O)N1C(=O)N(Cc2ccccc2)C[C@H]1C(=O)O)C(=O)OCC | 86 to 88 °C

SMILES | melting point
Cn1cnc(COc2ccc(-c3cc(-c4c[nH]nc4-c4ccccn4)ccn3)cc2)c1 | 104 °C
CCC(O)CN1CCC(c2noc3cc(F)ccc23)CC1 (stereo not drawn) | 87 to 88 °C
CCC1(O)CC(=O)OCc2c1cc1n(c2=O)Cc2c-1nc1ccc(Cl)cc1c2-c1ccccc1F (stereo not drawn) | > 250 °C
CCCc1nc2c(N)nc3ccc(-c4ccc(CO)cc4)cc3c2s1 | 212 to 214 °C
O=S(=O)(Br)c1cccc2cccnc12 | 142 to 144 °C
OCc1ccc(OCc2ccc3ccccc3n2)cc1 | 131 to 135 °C
O=S(=O)(Nc1ccccc1O)c1ccccc1 | 140 °C
CC(C)C[C@@H](CO)NC(=O)[C@H](Cc1c[nH]cn1)N(C(=O)[C@H](Cc1cccc2ccccc12)NC(=O)OCc1ccccc1)C(=O)[C@@H](N)Cc1cccc2ccccc12 | 199 to 200 °C
CCn1c(C)nc(N2CCc3ccccc3CC2)c(C#N)c1=O | 154 to 158 °C
Cc1cc(COc2ccc(Oc3ccccc3)cc2)on1 | 48 to 51 °C
CCC(CC)Nc1c(Br)c(CBr)nc2c1nnn2-c1c(C)cc(C)cc1C | 115 to 117 °C
CCOC(=O)NC(=O)N(O)Cc1c(C)n(C(=O)c2ccc(Cl)cc2)c2ccc(OC)cc12 | 148 °C
CC(=Cc1ccc2cc[nH]c2c1)C(=O)O | 188 to 190 °C
Cc1cc(CCCCCCCOc2ccc(C(=O)NN)cc2)on1 | 121 to 122 °C
COc1cc2c(Nc3cccc(Cl)c3F)ncnc2cc1OC1CCN(C(=O)C(C)(C)CO)CC1 | 111 to 115 °C
COc1cccc(-c2nn(C(C)c3oc4ccccc4c(=O)c3-c3ccccc3)c3ncnc(N)c23)c1 (stereo not drawn) | 176 to 178 °C
COC(=O)C1=C(C)NC(C)=C(C(=O)OCCN2CCN(C(c3ccccc3)c3ccccc3)CC2)C1c1ccccc1Cl (stereo not drawn) | 81 to 83 °C
COC(=O)C1CC2=C(CO1)C(=O)C=CC2=O (stereo not drawn) | 55 to 58 °C
COC(=O)c1ccc(-c2cccc(C(=O)OC)c2)cc1 | 86 to 87 °C
CS(=O)(=O)c1ccc(-c2ncccc2C(=O)c2cccc(F)c2)cc1 | 157 to 159 °C
CC12CCC(O)CC1CCC1C2CCC2(C)C(c3ccnnc3)CCC12O (stereo not drawn) | 210 to 213 °C
Cc1cnc2c(NC(=O)c3c(Cl)cccc3Cl)ccc(C)c2c1-n1ccnc1 | 214 to 216 °C
NS(=O)(=O)Oc1cc(Cl)cc(Cl)c1 | 146 to 147 °C
COc1cc(C(=O)N2CCN(C(=O)C=C(c3ccccc3)c3ccccc3)CC2)cc(OC)c1OC | 148 to 150 °C
O=C(CCCCCCCCC(=O)OC1CCN(O)CC1)OC1CCN(O)CC1 | 133 to 135 °C
COc1cc(C=O)c(Cl)c(Cl)c1OC | 120 to 123 °C

Reference: a melting point compilation (Tetko et al.; mined from patent text by program, amines drawn as free bases though some values may be those of a salt)
